How the values were obtained:
Assay type in all cases: physicochemical
[1] = Fluorescence emission and fluorescence quantum yield (comparative method); conditions: EtOH, TPP as standard
Method: (§1) Fluorescence emission spectra were recorded from 550 nm to 750 nm with excitation at Soret band (λ≈420 nm). The excitation and emission slits were both set to 8 nm and scanning speed to 50 nm/min. Fluorescence spectra were recorded with a Perkin Elmer Fluorescence Spectrometer LS 55. Determination of fluorescence quantum yields: ΦF of studied photosensitizers was determined using the comparative method according to the equation: ΦF=ΦFStd⋅FAStdn^2/FStdAnStd2, (1) where F and FStd are the areas under the fluorescence emission curves of the sample and the standard, A and AStd are the absorbance of the sample and the standard and n are the refractive indices of the solvent used for the sample and the standard, respectively. Commercially available tetraphenylporphyrin TPP (Std) (ΦF = 0.10 in toluene) was employed as the standard. The absorbance of the solutions at the excitation wavelength was in the range of 0.02. Singlet oxygen quantum yields were determined based on the relative phosphorescence emissions of singlet oxygen generated by a reference and by each one of the porphyrins, using a method described elsewhere. Briefly, a modified Applied Photophysics LKS.60 flash photolysis spectrometer with a Hamamatsu NIR photomultiplier for detection and HP Infinium (500 MHz, 1GSas^-1) or Tektronix DPO 7254 (2.5 GHz, 40GSas^-1) oscilloscopes were used. The adaptation of this spectrometer allowed for the detection of singlet oxygen phosphorescence at room temperature. This emission was detected using a Hamamatsu R5509–42 photomultiplier, cooled to 193 K in a liquid nitrogen chamber. […] The modification of the spectrometer for time-resolved singlet oxygen phosphorescence measurements involved the interposition of a Melles Griot cold mirror (03MCS005), which reflects more than 99% of the incident light in the 400–700 nm range, and of a Scotch RG665 filter. A 600 line diffraction grating was mounted in place of a standard one. […] Solutions of photosensitizers were prepared with matched absorbances close to 0.2 at 355 nm. […]

[2] = Singlet oxygen quantum yield by phosphorescence at 1270 nm; conditions: EtOH, phenalenone as reference
Method: as §1

[3] = UV/Vis absorption spectra, molar absorption coefficients; conditions: EtOH
Method: All commercial chemicals and reagents were of analytical grade and were purchased from Sigma-Aldrich. UV/Vis absorption spectra were recorded in a Hewlett Packard HP8453 spectrophotometer. Solutions containing samples of photosensitizers were dissolved in the selected solvent in quartz cuvettes. Using measured absorbance for various concentrations of porphyrin in ethanol, the molar absorption coefficients were determined from Beer’s law.

O=S(=O)(O)c1ccc(F)c(-c2c3nc(c(-c4c(F)ccc(S(=O)(=O)O)c4F)c4ccc([nH]4)c(-c4c(F)ccc(S(=O)(=O)O)c4F)c4nc(c(-c5c(F)ccc(S(=O)(=O)O)c5F)c5ccc2[nH]5)C=C4)C=C3)c1F [F2POH, 5,10,15,20-tetrakis(2,6-difluoro-3-sulfophenyl)porphyrin]
Fluorescence quantum yield ΦF [1]: 0.040
Singlet oxygen quantum yield ΦΔ [2]: 0.71
Absorption λmax, Qx (0,1) [3]: 584 nm
Absorption λmax, Qx(0,0) [3]: 638 nm
Absorption λmax, Qy (0,0) [3]: 532 nm
Absorption λmax, Qy (0,1) [3]: 508 nm
Absorption λmax, B(0,0) ([3]; Soret band): 420 nm

— paper PMC5634595, “Properties of halogenated and sulfonated porphyrins relevant for the selection of photosensitizers in anticancer and antimicrobial therapies” (PLoS ONE, 2017)
